How the values were obtained:
[1] = double-blind, randomized, placebo and haloperidol-controlled clinical trial: occurrence of fungal dermatitis; assay type: in vivo; conditions: 15 +/-2.5 mg/day vs haloperidol (15 +/- 5 mg/day), double-blind extension treatment phase, human subjects
Description: Such effectiveness for the treatment, amelioration of fungal dermatitis was shown in the following clinical trial:
The study was a double-blind, randomized, parallel, placebo and haloperidol-controlled study of 55 human subjects. The study was conducted in 23 study centers throughout the United States and Canada. […] The acute phase lasted for 6 weeks with evaluations performed weekly followed by a double-blind extension phase of at least one year.

[2] = detection of radiolabelled compound in saliva; assay type: in vivo
Description: For example, in the treatment of adult humans, dosages of from about 5 to 20 mg per day may be used. A once a day dosage is normally sufficient, although divided doses may be administered. For treatment of fungal dermatitis in a human, a dose range of from about […], preferably 5 to 20 mg per day is suitable.

[3] = system: apomorphine-induced climbing behavior; conditions: mice; cited from earlier work
[4] = system: apomorphine-induced hypothermia; conditions: mice; cited from earlier work
[5] = system: conditioned avoidance response; conditions: rats; cited from earlier work
5-HT1C receptor = molecular target: T1, 5-HT1C receptor (Homo sapiens, UniProt P28335); conditions: in vitro; cited from earlier work
T1 sequence (P28335 33-458): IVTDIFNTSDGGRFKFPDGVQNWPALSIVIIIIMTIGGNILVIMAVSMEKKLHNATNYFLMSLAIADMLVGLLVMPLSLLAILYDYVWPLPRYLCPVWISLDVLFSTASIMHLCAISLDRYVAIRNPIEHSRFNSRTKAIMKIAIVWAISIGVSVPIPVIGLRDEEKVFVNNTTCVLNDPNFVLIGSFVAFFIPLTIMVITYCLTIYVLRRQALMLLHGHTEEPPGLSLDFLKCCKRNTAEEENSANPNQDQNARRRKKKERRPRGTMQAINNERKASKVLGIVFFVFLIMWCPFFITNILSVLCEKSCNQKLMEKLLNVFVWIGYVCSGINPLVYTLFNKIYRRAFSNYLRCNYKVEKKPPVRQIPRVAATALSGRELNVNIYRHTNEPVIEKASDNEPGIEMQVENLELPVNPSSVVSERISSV

Q: For Cc1cc2c(s1)Nc1ccccc1N=C2N1CCN(C)CC1 [2-methyl-4-(4-methyl-1-piperazinyl)-10H-thieno[2,3-b][1,5]benzodiazepine], which “occurrence of fungal dermatitis compared with haloperidol” value [1] is on record?
A: statistically significantly less frequently

Q: What about the “detection in the saliva” value [2] of the same molecule?
A: can be detected in the saliva

Q: What about the apomorphine-induced climbing behavior [3] of the same molecule?
A: antagonized

Q: What about the apomorphine-induced hypothermia [4] of the same molecule?
A: antagonized

Q: What about the conditioned avoidance response [5] of the same molecule?
A: inhibits

Q: And the “activity at the 5-HT1C receptor” value (5-HT1C receptor)?
A: active
